Values quoted from earlier work as cited in paper PMC6503469, “The Use of Molecular Descriptors To Model Pharmaceutical Uptake by a Fish Primary Gill Cell Culture Epithelium” (Environmental Science & Technology, 2018).
Structures can show the parent of a compound that is named as a salt. Where two headings read alike, the source gives them in different places.

Tests used:
[1] = parameters: method as in PMID 28853873; conditions: adult zebrafish
[2] = source not stated; for log S: molecular descriptor (solubility); for log D: octanol–water distribution coefficient at pH 7.4; for log Kow: octanol–water partition coefficient; for PSA: polar surface area; for pKa: molecular descriptor
[3] = not given; remark: listed apart in the source
[4] = parameters: method as in Nallani et al 2012; conditions: pH 7.4, exposed to 83 µg/L for 7 days; ref Nallani et al 2012
[5] = parameters: method as in Chen et al 2017; conditions: pH 7.6, after 6h exposure to 12.5 µg/L; ref Chen et al 2017

Row | log S [2] | log D [2] | log Kow [2] | PSA [2] | pKa [2] | SMILES | other results
1 | – | – | – | 115.04 Å^2 | – | CC(=O)Nc1nnc(S(N)(=O)=O)s1 [acetazolamide] | –
2 | – | 0.06 | 0.97 | 54.37 Å^2 | – | CC(C(=O)O)c1cccc(C(=O)c2ccccc2)c1 (centres unmarked) [ketoprofen] | Plasma concentration (pH 7.4, after 14 days exposure to 91 µg/L, ref Cuklev et al 2012): 1 ng/mL
3 | –4.8 | 1.22 | 1.9 | 52.16 Å^2 | – | O=C(O)Cc1ccccc1Nc1c(Cl)cccc1Cl [diclofenac, diclofenac sodium salt] | Plasma concentration ([3]; pH 7.6, after 48h exposure to 24 µg/L, ref Bickley et al 2017): 205 ng/mL; Plasma concentration ([3]; pH 7.6, after 21 days exposed to 0.95 µg/L, ref Bickley et al 2017): 26 ng/mL
4 | – | 4.16 | 3.49 | 106.97 Å^2 | 13.85 | C[C@H]1C[C@H]2[C@@H]3CCC4=CC(=O)C=C[C@]4(C)[C@@]3(Cl)[C@@H](O)C[C@]2(C)[C@@]1(O)C(=O)CO [beclomethasone] | Plasma concentration ([3]; pH 7.4, 21 days exposure to 816 ng/L, dipropionate rapidly metabolized, combined values, ref Margiotta-Casaluci et al. 2016): 60 ± 35 ng/mL
5 | – | 2.98 | 3.15 | 37.30 Å^2 | 17.59 | C#C[C@]1(O)CC[C@H]2[C@@H]3CCC4=CC(=O)CC[C@@H]4[C@H]3CC[C@@]21C [norethindrone, norethindrone-19] | Plasma concentration [4]: 950 ng/mL
6 | –3.5 | 0.29 | 2.48 | 40.10 Å^2 | – | CC(C)Cc1ccc(C(C)C(=O)O)cc1 (centres unmarked) [ibuprofen, ibuprofen sodium salt] | Plasma concentration ([3]; pH 7.4, after 24h exposed to 107 µg/L, ref Patel et al 2016): 550 ng/mL
7 | –4 | 1.40 | 4.77 | 46.53 Å^2 | 4.42 | Cc1ccc(C)c(OCCCC(C)(C)C(=O)O)c1 [gemfibrozil] | Plasma concentration [5]: 183 ng/mL

Row | SMILES | log S [2] | log D [2] | log Kow [2] | PSA [2] | pKa [2] | other results
8 | NC(=O)N1c2ccccc2C=Cc2ccccc21 [carbamazepine] | –3.2 | 2.28 | 2.28 | 46.33 Å^2 | – | Plasma concentration (pH 7.7, after 10 days exposed to 43 µg/L, ref Lahti et al 2011): 25 ng/mL; BCFss [1]: 1.41 ± 7.13 L kg^–1
9 | CC(=O)CC(c1ccccc1)c1c(O)c2ccccc2oc1=O (centres unmarked) [warfarin] | –3.8 | 0.16 | – | – | 5.08 | –
